In patent US20240115547A1, “PSYCHOTROPIC AGENTS AND USES THEREOF” (LB PHARMACEUTICALS INC., priority 2021, published 2024):

Tested on: Dopamine (e.g., D2/D3)
Test: Dopamine RO % by raclopride PET after LB-102, various dosage regimens (Example 3)
Assay type: in vivo, human
Conditions: for Dopamine RO % (Caudate + Putamen): group mean
Experimental: Healthy subjects were dosed orally with LB102 of 50 mg QD (n=4), 75 mg QD (n=4), 100 mg QD (n=4), 50 mg SS (n=2), or 100 mg SS (n=2). Subjects were, on average, 33 years old. Subjects dosed QD were given a single dose on day 1 after which PET scans were obtained; and subjects dosed SS, i.e., steady state, were dosed once a day for 4 days and PET scans were obtained after dosing on Day 4.
Dynamic […] raclopride PET scans were obtained 0 h, 2.5 h, 7.5 h, and 23.5 h after LB-102 administration for the 50 mg and 100 mg QD treatment groups and after LB-102 administration of Day 4 for the 50 mg SS and 100 mg SS treatment groups; and 0 h, 3.5 h, 23.5 h, and 47.5 h after LB-102 administration for the 75 mg QD treatment group. Dopamine % RO were calculated using the STRM method (https://pubmed.ncbi.nlm.nih.gov/9345505/, which is incorporated herein by reference) and the combined RO % (average of caudate and putamen RO %) are shown as squares FIGS. 5A (50 mg QD), 5B (75 mg QD), 5C (100 mg QD); and FIGS. 6A (50 mg SS Day 4) and 6B (100 mg SS Day 4); and summarized in Table 3-A below.
Dynamic ^11C raclopride PET scan results for calculation of dopamine RO % were measured in caudate, putamen, thalamus, and temporal lobe of each subject tested, and are summarized in Tables 3-B to 3-F below.

[1] = 75 mg QD, Subject 3, 3.5 h after LB-102 admin.
[2] = 75 mg QD, Subject 3, 23.5 h after LB-102 admin.
[3] = 75 mg QD, Subject 3, 47.5 h after LB-102 admin.
[4] = 75 mg QD, Subject 4, 3.5 h after LB-102 admin.
[5] = 75 mg QD, Subject 4, 23.5 h after LB-102 admin.
[6] = 75 mg QD, Subject 4, 47.5 h after LB-102 admin.
[7] = 100 mg QD, Subject 1, 2.5 h after LB-102 admin.
[8] = 100 mg QD, Subject 1, 7.5 h after LB-102 admin.
[9] = 100 mg QD, Subject 1, 23.5 h after LB-102 admin.
[10] = 100 mg QD, Subject 2, 2.5 h after LB-102 admin.
[11] = 100 mg QD, Subject 2, 7.5 h after LB-102 admin.
[12] = 100 mg QD, Subject 2, 23.5 h after LB-102 admin.
[13] = 100 mg QD, Subject 3, 2.5 h after LB-102 admin.
[14] = 100 mg QD, Subject 3, 7.5 h after LB-102 admin.
[15] = 100 mg QD, Subject 3, 23.5 h after LB-102 admin.
[16] = 100 mg QD, Subject 4, 2.5 h after LB-102 admin.
[17] = 100 mg QD, Subject 4, 7.5 h after LB-102 admin.
[18] = 100 mg QD, Subject 4, 23.5 h after LB-102 admin.
[19] = 100 mg SS (Day 4), Subject 3, ~3 h after LB-102 admin.
[20] = 100 mg SS (Day 4), Subject 3, ~8 h after LB-102 admin.
[21] = 100 mg SS (Day 4), Subject 3, ~24 h after LB-102 admin.
[22] = 100 mg SS (Day 4), Subject 4, ~3 h after LB-102 admin.
[23] = 100 mg SS (Day 4), Subject 4, ~8 h after LB-102 admin.
[24] = 100 mg SS (Day 4), Subject 4, ~24 h after LB-102 admin.

Structure (SMILES): CCN1CCCC1CNC(=O)c1cc(S(=O)(=O)CC)c(NC)cc1OC (stereo not shown) [LB-102]
- Dopamine RO % Putamen [1]: 50%
- Dopamine RO % Temporal lobe [1]: 28%
- Dopamine RO % Thalamus [1]: 37%
- Dopamine RO % Caudate [2]: 69%
- Dopamine RO % Putamen [2]: 53%
- Dopamine RO % Temporal lobe [2]: 20%
- Dopamine RO % Thalamus [2]: 36%
- Dopamine RO % Caudate [3]: 52%
- Dopamine RO % Putamen [3]: 38%
- Dopamine RO % Temporal lobe [3]: 16%
- Dopamine RO % Thalamus [3]: 20%
- Dopamine RO % Caudate [4]: 5%
- Dopamine RO % Putamen [4]: 2%
- Dopamine RO % Temporal lobe [4]: −2%
- Dopamine RO % Thalamus [4]: 5%
- Dopamine RO % Caudate [5]: 48%
- Dopamine RO % Putamen [5]: 37%
- Dopamine RO % Temporal lobe [5]: 27%
- Dopamine RO % Thalamus [5]: 21%
- Dopamine RO % Caudate [6]: 13%
- Dopamine RO % Putamen [6]: 12%
- Dopamine RO % Temporal lobe [6]: −6%
- Dopamine RO % Thalamus [6]: −25%
- Dopamine RO % (Caudate + Putamen) (100 mg QD, 0 h after LB-102 administration): 0%
- Dopamine RO % (Caudate + Putamen) (100 mg QD, 3 h after LB-102 administration): 41%
- Dopamine RO % (Caudate + Putamen) (100 mg QD, 8 h after LB-102 administration): 70%
- Dopamine RO % (Caudate + Putamen) (100 mg QD, 24 h after LB-102 administration): 69%
- Dopamine RO % Caudate [7]: 39%
- Dopamine RO % Putamen [7]: 32%
- Dopamine RO % Temporal lobe [7]: 18%
- Dopamine RO % Thalamus [7]: 28%
- Dopamine RO % Caudate [8]: 75%
- Dopamine RO % Putamen [8]: 67%
- Dopamine RO % Temporal lobe [8]: 24%
- Dopamine RO % Thalamus [8]: 40%
- Dopamine RO % Caudate [9]: 76%
- Dopamine RO % Putamen [9]: 68%
- Dopamine RO % Temporal lobe [9]: 13%
- Dopamine RO % Thalamus [9]: 26%
- Dopamine RO % Caudate [10]: 56%
- Dopamine RO % Putamen [10]: 52%
- Dopamine RO % Temporal lobe [10]: 17%
- Dopamine RO % Thalamus [10]: 42%
- Dopamine RO % Caudate [11]: 78%
- Dopamine RO % Putamen [11]: 75%
- Dopamine RO % Temporal lobe [11]: 17%
- Dopamine RO % Thalamus [11]: 49%
- Dopamine RO % Caudate [12]: 72%
- Dopamine RO % Putamen [12]: 66%
- Dopamine RO % Temporal lobe [12]: 22%
- Dopamine RO % Thalamus [12]: 43%
- Dopamine RO % Caudate [13]: 50%
- Dopamine RO % Putamen [13]: 46%
- Dopamine RO % Temporal lobe [13]: 20%
- Dopamine RO % Thalamus [13]: 34%
- Dopamine RO % Caudate [14]: 84%
- Dopamine RO % Putamen [14]: 77%
- Dopamine RO % Temporal lobe [14]: 24%
- Dopamine RO % Thalamus [14]: 46%
- Dopamine RO % Caudate [15]: 76%
- Dopamine RO % Putamen [15]: 69%
- Dopamine RO % Temporal lobe [15]: 22%
- Dopamine RO % Thalamus [15]: 39%
- Dopamine RO % Caudate [16]: 26%
- Dopamine RO % Putamen [16]: 25%
- Dopamine RO % Temporal lobe [16]: 10%
- Dopamine RO % Thalamus [16]: 31%
- Dopamine RO % Caudate [17]: 55%
- Dopamine RO % Putamen [17]: 49%
- Dopamine RO % Temporal lobe [17]: 15%
- Dopamine RO % Thalamus [17]: 49%
- Dopamine RO % Caudate [18]: 68%
- Dopamine RO % Putamen [18]: 56%
- Dopamine RO % Temporal lobe [18]: 15%
- Dopamine RO % Thalamus [18]: 39%
- Dopamine RO % Caudate [19]: 84%
- Dopamine RO % Putamen [19]: 80%
- Dopamine RO % Temporal lobe [19]: 19%
- Dopamine RO % Thalamus [19]: 50%
- Dopamine RO % Caudate [20]: 86%
- Dopamine RO % Putamen [20]: 83%
- Dopamine RO % Temporal lobe [20]: 18%
- Dopamine RO % Thalamus [20]: 51%
- Dopamine RO % Caudate [21]: 80%
- Dopamine RO % Putamen [21]: 73%
- Dopamine RO % Temporal lobe [21]: 23%
- Dopamine RO % Thalamus [21]: 48%
- Dopamine RO % Caudate [22]: 88%
- Dopamine RO % Putamen [22]: 79%
- Dopamine RO % Temporal lobe [22]: 32%
- Dopamine RO % Thalamus [22]: 78%
- Dopamine RO % Caudate [23]: 89%
- Dopamine RO % Putamen [23]: 80%
- Dopamine RO % Temporal lobe [23]: 25%
- Dopamine RO % Thalamus [23]: 80%
- Dopamine RO % Caudate [24]: 83%
- Dopamine RO % Putamen [24]: 72%
- Dopamine RO % Temporal lobe [24]: 31%
- Dopamine RO % Thalamus [24]: 69%
- Dopamine RO % (Caudate + Putamen) (100 mg SS (once a day for 4 days), 3 h after Day 4 administration): 88%
- Dopamine RO % (Caudate + Putamen) (100 mg SS (once a day for 4 days), 8 h after Day 4 administration): 82%
- Dopamine RO % (Caudate + Putamen) (100 mg SS (once a day for 4 days), 24 h after Day 4 administration): 76%
- dopamine RO after plasma concentration dropped (after combined plasma concentration of LB-102 and amisulpride dropped sub 10 ng/mL): persisted significantly
